Key:
[1] = biological target: T1, δ receptors in rat brain membranes (Rattus norvegicus, UniProt P33533); test: Rat brain GTPγ35S functional assay; type: biochemical
T1 construct: membranes from HEK-293S cells expressing the cloned human opioid receptors or from homogenised rat and mouse brain; from tissue; host or cells: rat brain homogenate membranes
Experimental: Rat brains are weighed and rinsed in ice-cold PBS (containing 2.5 mM EDTA, pH 7.4). The brains are homogenized with a polytron for 30 sec (rat) in ice-cold lysis buffer (50 mM Tris, pH 7.0, 2.5mM EDTA, with phenylmethylsulfonyl fluoride added just prior use to […] from a 0.5M stock in DMSO:ethanol).
(§1) The agonist activity of the compounds is measured by determining the degree to which the compounds receptor complex activates the binding of GTP to G-proteins to which the receptors are coupled. In the GTP binding assay, GTP[γ]^35S is combined with test compounds and membranes from HEK-293S cells expressing the cloned human opioid receptors or from homogenised rat and mouse brain. Agonists stimulate GTP[γ]^35S binding in these membranes. The EC50 and Emax values of compounds are determined from dose-response curves. […] For human δ receptor functional assays, EC50 (low) is measured when the human δ receptors used in the assay were expressed at lower levels in comparison with those used in determining EC50 (high). […]
Rat brain membranes are thawed at 37° C., passed 3 times through a 25-gauge blunt-end needle and diluted in the GTPYS binding (50 mM Hepes, 20 mM NaOH, 100 mM NaCl, 1 mM EDTA, 5 mM MgCl2, pH 7.4, Add fresh: 1 mM DTT, 0.1% BSA). […] The basal and maximal stimulated binding are determined in absence and presence of 3 μM SNC-80.

cloned human κ receptors = cloned human κ receptors (Homo sapiens, UniProt P41145); test: Human κ receptor radioligand binding assay; conditions: membranes of human 293S cells; Table 1
Sequence of cloned human κ receptors (P41145 whole entry): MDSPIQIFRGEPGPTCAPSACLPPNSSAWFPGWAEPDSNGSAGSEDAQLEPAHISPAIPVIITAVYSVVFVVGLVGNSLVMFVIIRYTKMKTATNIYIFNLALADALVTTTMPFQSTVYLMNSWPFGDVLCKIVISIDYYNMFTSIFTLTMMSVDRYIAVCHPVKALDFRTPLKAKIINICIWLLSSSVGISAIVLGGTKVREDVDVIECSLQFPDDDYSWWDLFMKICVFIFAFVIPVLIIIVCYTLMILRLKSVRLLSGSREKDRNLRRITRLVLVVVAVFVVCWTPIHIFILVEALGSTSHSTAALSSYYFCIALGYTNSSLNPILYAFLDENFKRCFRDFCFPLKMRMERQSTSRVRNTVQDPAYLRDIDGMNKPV

cloned human μ receptors = biological target: T2, cloned human μ receptors (Homo sapiens, UniProt P35372); test: Human μ receptor radioligand binding assay
T2 construct: expressed in transfected cells; host or cells: human HEK-293S cells, grown in suspension under geneticin selection
T2 sequence (P35372 whole entry): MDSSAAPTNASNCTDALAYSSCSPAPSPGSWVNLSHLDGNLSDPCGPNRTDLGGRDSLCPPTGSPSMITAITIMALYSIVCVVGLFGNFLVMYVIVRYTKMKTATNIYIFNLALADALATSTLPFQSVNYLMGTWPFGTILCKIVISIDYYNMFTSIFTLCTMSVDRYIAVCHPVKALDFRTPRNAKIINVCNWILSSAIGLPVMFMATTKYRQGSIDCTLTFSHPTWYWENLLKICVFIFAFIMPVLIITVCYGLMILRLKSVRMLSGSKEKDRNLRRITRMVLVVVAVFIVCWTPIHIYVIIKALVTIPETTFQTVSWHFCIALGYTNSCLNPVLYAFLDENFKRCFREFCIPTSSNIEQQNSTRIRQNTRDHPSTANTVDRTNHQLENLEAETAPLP

cloned human δ receptors [2] = biological target: T3, cloned human δ receptors (Homo sapiens, UniProt P41143); test: Human δ receptor radioligand binding assay
T3 construct: expressed in transfected cells; host or cells: human HEK-293S cells, grown in suspension under geneticin selection
T3 sequence (P41143 whole entry): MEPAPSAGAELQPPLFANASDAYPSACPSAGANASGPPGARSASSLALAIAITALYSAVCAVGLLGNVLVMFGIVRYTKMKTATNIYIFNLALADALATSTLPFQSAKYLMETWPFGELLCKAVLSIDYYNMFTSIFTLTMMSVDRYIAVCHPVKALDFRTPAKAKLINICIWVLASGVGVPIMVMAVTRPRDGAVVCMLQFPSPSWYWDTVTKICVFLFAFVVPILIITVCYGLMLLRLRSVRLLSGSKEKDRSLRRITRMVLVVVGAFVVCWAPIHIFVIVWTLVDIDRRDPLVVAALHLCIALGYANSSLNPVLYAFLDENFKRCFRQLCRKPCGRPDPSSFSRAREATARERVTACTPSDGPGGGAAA

cloned human δ receptors [3] = biological target: T3, cloned human δ receptors; test: Human δ receptor GTP[γ]35S functional assay (high expression); type: biochemical
Experimental: (§2) Human 293S cells expressing cloned human κ, δ and μ receptors and neomycin resistance are grown in suspension at 37° C. and 5% CO2 in shaker flasks containing calcium-free DMEM10% FBS, 5% BCS, 0.1% Pluronic F-68, and 600 μg/ml geneticin.
Cells are pelleted and resuspended in lysis buffer (50 mM Tris, pH 7.0, 2.5 mM EDTA, with PMSF added just prior to use to 0.1 mM from a 0.1 M stock in ethanol), incubated on ice for 15 min, then homogenized with a polytron for 30 sec. The suspension is spun at 1000 g (max) for 10 min at 4° C. The supernatant is saved on ice and the pellets resuspended and spun as before. The supernatants from both spins are combined and spun at 46,000 g(max) for 30 min. The pellets are resuspended in cold Tris buffer (50 mM Tris/Cl, pH 7.0) and spun again. […] The protein concentrations are determined by a modified Lowry assay with sodium dodecyl sulfate.
as §1, with “In the GTP binding assay, GTP[γ]^35S is combined with test compounds and membranes from HEK-293S cells expressing the cloned human opioid receptors or from homogenised rat and mouse brain. Agonists stimulate GTP[γ]^35S binding in these membranes.” left out

cloned human δ receptors [4] = biological target: T3, cloned human δ receptors; test: Human δ receptor GTP[γ]35S functional assay (low expression); type: biochemical; conditions: for Emax: relative to SNC80, lower expression level, range over the listed compounds
Experimental: as §2
Cells are pelleted and resuspended in lysis buffer (50 mM Tris, pH 7.0, 2.5 mM EDTA, with PMSF added just prior to use to 0.1 mM from a 0.1 M stock in ethanol), incubated on ice for 15 min, then homogenized with a polytron for 30 sec. The suspension is spun at 1000 g (max) for 10 min at 4° C. The supernatant is saved on ice and the pellets resuspended and spun as before. The supernatants from both spins are combined and spun at 46,000 g(max) for 30 min. The pellets are resuspended in cold Tris buffer (50 mM Tris/Cl, pH 7.0) and spun again. The final pellets are resuspended in membrane buffer (50 mM Tris, 0.32 M sucrose, pH 7.0). Aliquots (1 ml) in polypropylene tubes are frozen in dry ice/ethanol and stored at −70° C. until use. The protein concentrations are determined by a modified Lowry assay with sodium dodecyl sulfate.
The agonist activity of the compounds is measured by determining the degree to which the compounds receptor complex activates the binding of GTP to G-proteins to which the receptors are coupled. In the GTP binding assay, GTP[γ]^35S is combined with test compounds and membranes from HEK-293S cells expressing the cloned human opioid receptors or from homogenised rat and mouse brain. Agonists stimulate GTP[γ]^35S binding in these membranes. The EC50 and Emax values of compounds are determined from dose-response curves. Right shifts of the dose response curve by the delta antagonist naltrindole are performed to verify that agonist activity is mediated through delta receptors. For human δ receptor functional assays, EC50 (low) is measured when the human δ receptors used in the assay were expressed at lower levels in comparison with those used in determining EC50 (high). The Emax values were determined in relation to the standard δ agonist SNC80, i.e., higher than 100% is a compound that have better efficacy than SNC80.

[5] = Human μ IC50, Table 2, range over the listed compounds
[6] = Human δ IC50, Table 2, range over the listed compounds

T1 sequence (P33533 whole entry): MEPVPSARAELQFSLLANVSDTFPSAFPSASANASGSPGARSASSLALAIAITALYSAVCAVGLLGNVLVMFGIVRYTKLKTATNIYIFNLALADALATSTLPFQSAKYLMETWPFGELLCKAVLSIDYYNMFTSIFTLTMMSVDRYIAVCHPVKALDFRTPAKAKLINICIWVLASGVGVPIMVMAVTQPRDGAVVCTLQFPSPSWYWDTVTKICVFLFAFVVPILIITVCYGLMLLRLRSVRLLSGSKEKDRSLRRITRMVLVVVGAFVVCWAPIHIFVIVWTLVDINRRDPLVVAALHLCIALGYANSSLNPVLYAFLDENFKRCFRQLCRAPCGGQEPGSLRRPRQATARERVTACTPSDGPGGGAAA

| SMILES | EC50 [1] [nM] | Emax ([1]; relative to SNC80, rat brain membranes) [%] | IC50 (cloned human κ receptors) [nM] | IC50 (cloned human μ receptors; Human μ IC50, membranes of human 293S cells, Table 1) [nM] | IC50 (cloned human δ receptors [2]; Human δ IC50, membranes of human 293S cells, displacement of radioligand, Table 1) [nM] | EC50 (cloned human δ receptors [3]) [nM] | Emax (cloned human δ receptors [3]; relative to standard δ agonist SNC80, higher expression level) [%] | IC50 (cloned human μ receptors; [5]) [nM] | IC50 (cloned human δ receptors [2]; [6]) [nM] | EC50 (cloned human δ receptors [4]) [nM] | Emax (cloned human δ receptors [4]) [%] |
| --- | --- | --- | --- | --- | --- | --- | --- | --- | --- | --- | --- |
| CCN(CC)C(=O)c1ccc(C(c2cccc(C(N)=O)c2)N2CCN(Cc3ccccc3)CC2)cc1 (single isomer, unassigned) [Compound 1a, 3-[(4-[(diethylamino)carbonyl]phenyl)(4-benzyl-piperazin-1-yl)methyl]benzamide] | 0.2 | 170 | 112 | 7.7 | 0.26 | 0.29 | 101 |  |  |  |  |
| CCN(CC)C(=O)c1ccc(C(c2cccc(C(N)=O)c2)N2CCN(Cc3ccccc3)CC2)cc1 (single isomer, unassigned) [Compound 1b, 3-[(4-[(diethylamino)carbonyl]phenyl)(4-benzyl-piperazin-1-yl)methyl]benzamide] |  |  |  |  |  |  |  | 45 to 1720 | 0.14 to 3.73 | 0.5 to 83 | 91 to 104 |
| CCN(CC)C(=O)c1ccc(C(c2cccc(C(N)=O)c2)N2CCN(Cc3ccco3)CC2)cc1 (single isomer, unassigned) [Compound 2a, 3-{(4-[(diethylamino)carbonyl]phenyl)[4-(2-furylmethyl)-piperazin-1-yl]methyl}benzamide] |  |  |  |  |  |  |  | 45 to 1720 | 0.14 to 3.73 | 0.5 to 83 | 91 to 104 |
| CCN(CC)C(=O)c1ccc(C(c2cccc(C(=O)NC)c2)N2CCN(Cc3ccccc3)CC2)cc1 (single isomer, unassigned) [Compound 3a, 3-[[4-[(diethylamino)carbonyl]phenyl][4-(phenylmethyl)-1-piperazinyl]methyl]-N-methyl-benzamide] |  |  |  |  |  |  |  | 45 to 1720 | 0.14 to 3.73 | 0.5 to 83 | 91 to 104 |
